# Results: ChEMBL document CHEMBL1146771, “Identification of purine inhibitors of phosphodiesterase 7 (PDE7)” (Bioorg Med Chem Lett, 2004)
# Tests used:
# [1] = Inhibition of Phosphodiesterase 7
# [2] = Inhibitory concentration ratio of PDE5 to that of PDE7
# [3] = Inhibitory concentration ratio of PDE3 to that of PDE7
# Rattus norvegicus [4] = species: Rattus norvegicus
# [5] = target: T1, cGMP-dependent 3',5'-cyclic phosphodiesterase (Rattus norvegicus, UniProt Q01062); assay: Inhibitory concentration against phosphodiesterase 2 from rat kidney
# T1 sequence (Q01062 whole entry): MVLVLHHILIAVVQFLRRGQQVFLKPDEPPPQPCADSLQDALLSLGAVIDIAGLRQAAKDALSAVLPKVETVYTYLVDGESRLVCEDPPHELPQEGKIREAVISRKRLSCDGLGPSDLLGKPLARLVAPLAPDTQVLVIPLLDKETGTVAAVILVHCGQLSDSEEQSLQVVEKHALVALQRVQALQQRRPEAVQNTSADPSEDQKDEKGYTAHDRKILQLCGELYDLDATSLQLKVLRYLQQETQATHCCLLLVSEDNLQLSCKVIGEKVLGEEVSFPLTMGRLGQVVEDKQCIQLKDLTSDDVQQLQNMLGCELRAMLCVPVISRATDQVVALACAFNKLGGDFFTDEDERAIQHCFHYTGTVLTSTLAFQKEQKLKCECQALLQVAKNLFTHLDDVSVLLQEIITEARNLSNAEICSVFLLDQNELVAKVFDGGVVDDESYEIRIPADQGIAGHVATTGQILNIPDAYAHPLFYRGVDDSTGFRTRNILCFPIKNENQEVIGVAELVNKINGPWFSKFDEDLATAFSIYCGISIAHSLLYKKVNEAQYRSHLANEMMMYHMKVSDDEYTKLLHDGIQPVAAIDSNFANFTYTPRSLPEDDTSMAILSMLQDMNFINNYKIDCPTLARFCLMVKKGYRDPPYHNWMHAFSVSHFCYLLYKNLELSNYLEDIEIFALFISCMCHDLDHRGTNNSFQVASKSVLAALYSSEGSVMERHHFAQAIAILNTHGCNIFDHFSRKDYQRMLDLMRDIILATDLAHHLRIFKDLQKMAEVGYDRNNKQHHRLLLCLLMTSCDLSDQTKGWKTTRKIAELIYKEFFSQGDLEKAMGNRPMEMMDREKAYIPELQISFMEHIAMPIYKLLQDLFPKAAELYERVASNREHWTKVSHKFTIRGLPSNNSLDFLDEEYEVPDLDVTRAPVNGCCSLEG
# [6] = Inhibitory concentration ratio of PDE1 to that of PDE7
# [7] = Inhibitory concentration ratio of PDE2 to that of PDE7
# [8] = Inhibitory concentration ratio of PDE4 to that of PDE7
# Phosphodiesterase 3 = Phosphodiesterase 3 (Homo sapiens, UniProt Q14432+Q13370); assay: Inhibitory concentration against phosphodiesterase 3 from human platelet
# [9] = target: cGMP-specific 3',5'-cyclic phosphodiesterase (Homo sapiens, UniProt O76074); assay: Inhibitory concentration against phosphodiesterase 5 (PDE5) from human platelet
# Phosphodiesterase 1 = Phosphodiesterase 1 (Bos taurus, UniProt Q01061+P14100); assay: Inhibitory concentration against phosphodiesterase 1 from bovine, calmodulin; assay type: protein assay
# Rattus norvegicus [10] = species: Rattus norvegicus; assay: Inhibition of Phosphodiesterase 7 at 1 uM
Compound,IC50 [1] [µM],Ratio [2],Ratio [3],IC50 [5] [µM],Ratio [6],Ratio [7],Ratio [8],further results
CCOC(=O)c1sc(Nc2nc(OCc3ccc(S(C)(=O)=O)cc3)c3ncn(CC)c3n2)nc1C,0.37,4.1,21,–,–,–,–,–
Nc1ncnc2c1ncn2[C@@H]1O[C@@H]2COP(=O)(O)O[C@H]2[C@H]1O,–,–,–,–,–,–,–,Km (Rattus norvegicus [4]): 0.2 µM
CCCc1nn(C)c2c(=O)[nH]c(-c3cc(S(=O)(=O)N4CCN(C)CC4)ccc3OCC)nc12,> 10,–,–,> 10,–,–,–,–
CCOC(=O)c1sc(Nc2nc(NCc3ccc(OCc4ccccc4)c(OC)c3)c3c(ncn3CC)n2)nc1C,0.94,2.9,2.5,–,1.3,2.3,3.8,–
CCOC(=O)c1sc(Nc2nc(NS(=O)(=O)c3ccc(S(C)(=O)=O)cc3)c3ncn(CC)c3n2)nc1C,1.6,0.55,0.11,–,–,–,0.046,–
COc1nc2c([nH]1)c(=O)n(C)c(=O)n2CC(C)C,> 10,–,–,> 10,–,–,–,IC50 (Phosphodiesterase 3): > 10 µM; IC50 [9]: 3.02 µM; IC50 (Phosphodiesterase 1): 1.8 µM
CCOC(=O)c1sc(Nc2nc(NCc3ccc(OC)c(OC)c3)c3c(ncn3CC)n2)nc1C,0.15,–,–,1.7,–,–,–,IC50 (Phosphodiesterase 3): 0.58 µM; IC50 [9]: 0.27 µM; IC50 (Phosphodiesterase 1): 0.22 µM
CN(C(=O)CCCOc1ccc2[nH]c(=O)ccc2c1)C1CCCCC1 [CILOSTAMIDE],> 10,–,–,> 10,–,–,–,IC50 [9]: 7.15 µM; IC50 (Phosphodiesterase 1): > 10 µM
CCOC(=O)c1sc(Nc2nc(NCc3ccc(S(C)(=O)=O)cc3)c3c(ncn3CC)n2)nc1C,0.055,0.9,130,–,18,25,22,–
CCOC(=O)c1sc(Nc2nc(NCc3cc(OC)c(OC)c(OC)c3)c3c(ncn3CC)n2)nc1C,0.1,15,33,–,1.7,14,24,–
COc1cc(-c2ccc(=O)[nH]n2)ccc1OC(F)F [ZARDAVERINE],> 10,–,–,> 10,–,–,–,IC50 (Phosphodiesterase 3): 0.11 µM; IC50 [9]: > 10 µM; IC50 (Phosphodiesterase 1): > 10 µM
COc1ccc(C2CNC(=O)C2)cc1OC1CCCC1 (stereo not given) [ROLIPRAM],> 10,–,–,> 10,–,–,–,IC50 (Phosphodiesterase 3): > 10 µM; IC50 (Phosphodiesterase 1): > 10 µM
CCn1cnc2nc(Nc3nc(C)cs3)nc(NCc3ccc(OC)c(OC)c3)c21,–,–,–,–,–,–,–,inhibition (Rattus norvegicus [10]): 15%
CCOC(=O)c1sc(Nc2nc(NCc3ccc4c(c3)OCO4)c3c(ncn3CC)n2)nc1C,0.11,0.38,11,–,19,–,–,–
CCn1cnc2nc(Nc3nc(C)c(C(=O)Nc4ccccc4)s3)nc(NCc3ccc(OC)c(OC)c3)c21,0.82,1.1,12,–,12,11,7,–
CCOC(=O)c1sc(Nc2nc(NCc3ccc(S(N)(=O)=O)cc3)c3ncn(CC)c3n2)nc1C,0.01,13,> 5000,–,200,45,16,–
CCOC(=O)c1sc(Nc2nc(N3CCc4cc(OC)c(OC)cc4C3)c3c(ncn3CC)n2)nc1C,0.15,4.6,17,–,2.8,3.6,1.3,–
CCOC(=O)c1sc(Nc2nc(NCc3ccc(S(N)(=O)=O)cc3)c3c(ncn3CC)n2)nc1C,0.011,–,–,–,–,–,–,–
